# Data: US20060160070A1, “Association-based epitome design” (Microsoft Corporation, priority 2004, published 2006)
# How the values were obtained:
# target cells = details: in vitro; compared with consensus epitope; cited from earlier work
# HLA A*2402 [1] = target: T1, HLA A*2402 (Homo sapiens, UniProt P04439, D101N/D140Y/D185E/E176V/E190D/F33S/G103R/G107R/I119L/I121M/I306V/K335N/L105A/L180Q/L300P/N151K/N90K/Q86E/Q94H/R106L/R138H/R89G/T104I/T345S/V100E/W191G/Y123F); test: ITOPIA peptide binding assay; details: 1.11×10^−4M of peptide
# In short: (§1)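 Peptides are added at 1.11×10^−4M to wells carrying the immobilized HLA allele and bound under standardized optimal conditions. A control peptide at equal concentration shares each plate. Duplicate ELISA signals give binding relative to that positive control, in percent.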
# HLA A*0201 [2] = target: T2, HLA A*0201 (Homo sapiens, UniProt P04439, D140Y/D185E/D98H/E176V/E277Q/G131W/G231S/I119V/I121R/I166T/I218V/L300P/L318F/N151K/N90K/P208A/P217A/Q86G/Q94H/R138H/R169H/T345S); test: ITOPIA peptide binding assay; details: 1.11×10^−4M of peptide
# In short: as §1
# HLA A*1101 [3] = target: T3, HLA A*1101 (Homo sapiens, UniProt P04439, A114D/D185E/E176A/F33Y/L180Q/S129P/T187R); test: ITOPIA peptide binding assay; details: 1.11×10^−4M of peptide
# T3 construct: purchased
# In short: as §1
# HLA A*0301 [4] = target: T4, HLA A*0301 (Homo sapiens, UniProt P04439); test: ITOPIA peptide binding assay; details: 1.11×10^−4M of peptide
# T4 construct: purchased
# In short: as §1
# HLA B*0801 [5] = target: T5, HLA B*0801 (Homo sapiens, UniProt P01889, A93T/A95T/D138N/E176V/E187T/K202T/Q94N/R180D/S35A/V36M/Y33D/Y91F); test: ITOPIA peptide binding assay; details: 1.11×10^−4M of peptide
# T5 construct: purchased
# In short: as §1
# HLA B*0702 [6] = target: T6, HLA B*0702 (Homo sapiens, UniProt P01889); test: ITOPIA peptide binding assay; details: 1.11×10^−4M of peptide
# T6 construct: purchased
# In short: as §1
# HLA A*0101 [7] = target: T7, HLA A*0101 (Homo sapiens, UniProt P04439, A114D/A174V/A182V/D101N/D185E/E176A/E190D/L180R/Q94H/R68K/S129P/T187R/V100A/V91M/W191G); test: ITOPIA peptide binding assay; details: 1.11×10^−4M of peptide
# T7 construct: purchased
# In short: as §1
# HLA B*1501 [8] = target: T8, HLA B*1501 (Homo sapiens, UniProt P01889, A329T/A93T/A95T/C349S/D201E/D98Y/E187L/E204Q/E69M/E70A/K202T/N87E/Q94N/R155S/R180W/S121R/S35A/S48A/V306I/V36M/Y140S/Y91S); test: ITOPIA peptide binding assay; details: 1.11×10^−4M of peptide
# T8 construct: purchased
# In short: as §1
# HLA A*2402 [9] = target: T1, HLA A*2402; test: Multi-parametric analysis iScore; format: binding; design: scale not given here; details: index integrating t1/2 and ED50
# In short: (§2)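 Stability of the reconstituted peptide–MHC complex and the ED50 parameter are pooled into one iScore via multi-parametric analysis. Values define the overall binding level of each peptide.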
# HLA A*0201 [10] = target: T2, HLA A*0201; test: Multi-parametric analysis iScore; format: binding; design: scale not given here; details: index integrating t1/2 and ED50
# In short: as §2
# HLA A*1101 [11] = target: T3, HLA A*1101; test: Multi-parametric analysis iScore; format: binding; design: scale not given here; details: index integrating t1/2 and ED50
# In short: as §2
# HLA A*0301 [12] = target: T4, HLA A*0301; test: Multi-parametric analysis iScore; format: binding; design: scale not given here; details: index integrating t1/2 and ED50
# In short: as §2
# HLA B*0801 [13] = target: T5, HLA B*0801; test: Multi-parametric analysis iScore; format: binding; design: scale not given here; details: index integrating t1/2 and ED50
# In short: as §2
# HLA B*0702 [14] = target: T6, HLA B*0702; test: Multi-parametric analysis iScore; format: binding; design: scale not given here; details: index integrating t1/2 and ED50
# In short: as §2
# HLA A*0101 [15] = target: T7, HLA A*0101; test: Multi-parametric analysis iScore; format: binding; design: scale not given here; details: index integrating t1/2 and ED50
# In short: as §2
# HLA B*1501 [16] = target: T8, HLA B*1501; test: Multi-parametric analysis iScore; format: binding; design: scale not given here; details: index integrating t1/2 and ED50
# In short: as §2
# HLA A*0201 [17] = target: T2, HLA A*0201; test: ITOPIA off-rate assay; format: binding; details: 37° C., one-phase exponential decay
# HLA A*1101 [18] = target: T3, HLA A*1101; test: ITOPIA off-rate assay; format: binding; details: 37° C., one-phase exponential decay
# HLA A*0301 [19] = target: T4, HLA A*0301; test: ITOPIA off-rate assay; format: binding; details: 37° C., one-phase exponential decay
sequence,measurement,setting,value
TAFTIPST,increase in the peptide concentration required to sensitize target cells for 50% lysis (SD50) by CTLs,target cells,hundred-fold increase
KLAGRWPVK [compound 71],"level of binding, percent of positive control peptide binding",HLA A*2402 [1],11% of positive control
same,"level of binding, percent of positive control peptide binding",HLA A*0201 [2],26% of positive control
same,"level of binding, percent of positive control peptide binding",HLA A*1101 [3],160% of positive control
same,"level of binding, percent of positive control peptide binding",HLA A*0301 [4],114% of positive control
same,"level of binding, percent of positive control peptide binding",HLA B*0801 [5],4% of positive control
same,"level of binding, percent of positive control peptide binding",HLA B*0702 [6],0% of positive control
same,"level of binding, percent of positive control peptide binding",HLA A*0101 [7],0% of positive control
same,"level of binding, percent of positive control peptide binding",HLA B*1501 [8],2% of positive control
same,iScore,HLA A*2402 [9],0
same,iScore,HLA A*0201 [10],0.084
same,iScore,HLA A*1101 [11],0.834
same,iScore,HLA A*0301 [12],0.606
same,iScore,HLA B*0801 [13],0
same,iScore,HLA B*0702 [14],0
same,iScore,HLA A*0101 [15],0
same,iScore,HLA B*1501 [16],0
same,A*0201 t1/2,HLA A*0201 [17],1.3 h
same,A*1101 t1/2,HLA A*1101 [18],2.6 h
same,A*0301 t1/2,HLA A*0301 [19],4.6 h
KLAGRWPVT [compound 157],"level of binding, percent of positive control peptide binding",HLA A*2402 [1],8% of positive control
same,"level of binding, percent of positive control peptide binding",HLA A*0201 [2],51% of positive control
same,"level of binding, percent of positive control peptide binding",HLA A*1101 [3],19% of positive control
same,"level of binding, percent of positive control peptide binding",HLA A*0301 [4],9% of positive control
same,"level of binding, percent of positive control peptide binding",HLA B*0801 [5],4% of positive control
same,"level of binding, percent of positive control peptide binding",HLA B*0702 [6],3% of positive control
same,"level of binding, percent of positive control peptide binding",HLA A*0101 [7],2% of positive control
same,"level of binding, percent of positive control peptide binding",HLA B*1501 [8],6% of positive control
same,iScore,HLA A*2402 [9],0
same,iScore,HLA A*0201 [10],0.129
same,iScore,HLA A*1101 [11],0.039
same,iScore,HLA A*0301 [12],0
same,iScore,HLA B*0801 [13],0
same,iScore,HLA B*0702 [14],0
same,iScore,HLA A*0101 [15],0
same,iScore,HLA B*1501 [16],0
same,A*0201 t1/2,HLA A*0201 [17],1.1 h
same,A*1101 t1/2,HLA A*1101 [18],1.6 h
